# Experimental data as given in EP2698367A1, “Benzimidazoles for the treatment of cancer” (Max-Planck-Gesellschaft zur Förderung der Wissenschaften …, priority 2012, dated 2014).
# Molecular target: PDEδ farnesyl pocket (Homo sapiens, UniProt O43924)
# Experiment: Displacement titrations of labeled probe (fluorescence polarization) for the determination of KD values
# Assay type: binding
# Conditions: not given
# Source text: The resulting solution was serially diluted, holding the concentrations of S54, PDEδ and DMSO constant. The sealed plates were shaken overnight at room temperature and centrifuged at the beginning of the next day. […] For the fitting of the data to a competition model the exact mathematical solution derived from the law of mass action was used as described by Roehrl et al.^3 Fraction bound data was fit using KD2 as the only fitting parameter and total ligand concentration as independent variable (OriginPro8.6, function codec from origin). [formula] • FSB: Fraction bound of fluorescent probe • KD1: Binding constant of fluorescent Probe determined from direct titration • KD2: Fitting parameter (Binding constant of unlabeld competitor) • LST: Total concentration of unlabeld small molecule competitor • RT: Total protein concentration
# For the fitting of data to a competition model with cooperative binding of two benzimidazole fragments the program Scientist 3.0 was used. An experimental system was defined as a series of partial equations including the equilibrium relationships between the various species. Anisotropy data was converted to fraction bound and fitting was carried out in anlogy to a previously described set of equilibrium relationships by Goody and coworkers.^4. KD1 = ([A][PDEDf])/([APDED]) [formula] KD2 = ([L^2][PDEDf])/([LPDED]) [formula] • A:equilibrium conentration of free fluorophore • L: equilibrium concentration of free ligand • APDED: equilibrium concentration of bound fluorescent probe • LPDED: equilibrium conentration of bound small molecule • PDEDf: equilibrium conentration of free protein This model was used (together with equations describing the mass balance) to numerically simulate the FSB of fluorophore and compared with the experimental data.
# Scientist input file: • // Micromath Scientist Model File • IndVars: LST • DepVars: A,L,APDED,LPDED,PDEDf,FSB • Params: ATOT,PDED,KD1,KD2 • LPDED= L^2*PDEDf/KD2 • APDED=A*PDEDf/KD1 • ATOT=A+APDED • LST=L+LPDED • PDED=PDEDf+APDED+LPDED • 0<A<ATOT • 0<L<LST • 0<PDEDf<PDED • FSB=1-A/ATOT • LST=0
# The activity of the compounds was classified according to their Kd for the PDEδ farnesyl pocket into the following ranges: […]
# PDEδ farnesyl pocket, sequence (O43924 whole entry): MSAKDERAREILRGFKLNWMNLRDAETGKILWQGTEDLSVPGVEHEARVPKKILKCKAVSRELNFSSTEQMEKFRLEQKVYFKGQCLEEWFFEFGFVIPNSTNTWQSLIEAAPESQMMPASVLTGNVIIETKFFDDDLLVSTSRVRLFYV
row,Compound,Kd
1,COc1ccc(Cc2nc3ccccc3n2Cc2ccccc2)cc1 [Compound 27],100 to 1000 nM
2,Oc1ccc(Cn2c(-c3ccc(O)cc3)nc3ccccc32)cc1 [Compound 15],25 to 100 nM
3,c1ccc(Cn2c(CN3CCCCCC3)nc3ccccc32)cc1 [Compound 40],100 to 1000 nM
4,CC(C)CCn1c(CC(C)(C)C)nc2ccccc21 [Compound 35],100 to 1000 nM

# Same assay, conditions: Kd for the PDEδ farnesyl pocket; read-out: KD
row,Compound,Kd
1,Cc1ccc(OCc2nc3ccccc3n2C(C)c2ccccc2)cc1 (stereo not drawn) [Compound 16],100 to 1000 nM
2,"Oc1ccc(-c2nc3ccccc3n2Cc2ccc(F)cc2)cc1 [Compound S09, 4-(1-(4-Fluorobenzyl)-1H-benzo[d]imidazol-2-yl)phenol]",100 to 1000 nM
3,Cc1ccccc1Cn1c(Cc2ccccc2)nc2ccccc21 [Compound 28],> 1000 nM
4,COc1ccccc1OCc1nc2ccccc2n1Cc1ccccc1Cl [Compound 13],100 to 1000 nM
5,COc1cc(OC)cc(C(=O)N2CCN(c3nc4ccccc4n3Cc3ccccc3)CC2)c1 [Compound 45],100 to 1000 nM
6,CCC(CC)c1nc2ccccc2n1Cc1ccccc1 [Compound 30],> 1000 nM
7,"C=CCOc1ccc(-c2nc3ccccc3n2Cc2ccccc2)cc1 [Compound S02, 2-(4-(Allyloxy)phenyl)-1-benzyl-1H-benzo[d]imidazole]",> 1000 nM
8,"Oc1ccc(-c2nc3ccccc3n2Cc2ccccc2)cc1 [Compound S07, 4-(1-Benzyl-1H-benzo[d]imidazol-2-yl)phenol]",25 to 100 nM
9,O=C(c1ccccc1Cl)N1CCN(c2nc3ccccc3n2Cc2ccccc2)CC1 [Compound 46],100 to 1000 nM
10,COc1ccc(-c2nc3ccccc3n2Cc2c(F)cccc2Cl)cc1 [Compound 50],100 to 1000 nM
11,"O=C(NCc1ccccc1)C(C1CCCCC1)n1c(-c2ccccc2)nc2ccccc21 (stereo not drawn) [Compound S12, N-Benzyl-2-cyclohexyl-2-(2-phenyl-1H-benzo[d]imidazol-1-yl)acetamide]",100 to 1000 nM
12,C=C(C)Cn1c(CC(C)C)nc2ccccc21 [Compound 31],100 to 1000 nM
13,Fc1ccc(Cn2c(-c3cccc(Br)c3)nc3ccccc32)cc1 [Compound 43],> 1000 nM
14,COc1cccc(C(=O)C=Cc2nc3ccccc3n2Cc2ccccc2)c1 [Compound 49],> 1000 nM
15,CCc1nc2ccccc2n1Cc1ccccc1F [Compound 33],100 to 1000 nM
16,"Oc1ccc(-c2nc3ccccc3n2Cc2ccccn2)cc1 [Compound S08, 4-(1-(Pyridin-2-ylmethyl)-1H-benzo[d]imidazol-2-yl)phenol]",> 1000 nM
17,C=C(C)Cn1c(-c2ccc(N(C)C)cc2)nc2ccccc21 [Compound 14],100 to 1000 nM
18,CCCCc1nc2ccccc2n1Cc1ccc(Cl)cc1 [Compound 29],100 to 1000 nM
19,c1ccc(CCn2c(-c3ccco3)nc3ccccc32)cc1 [Compound 26],100 to 1000 nM
20,Cc1ccccc1Cn1c(CC(C)(C)C)nc2ccccc21 [Compound 34],25 to 100 nM
21,O=C(NCCN1CCCC1)C1CCN(c2nc3ccccc3n2Cc2ccccc2F)CC1 [Compound 17],100 to 1000 nM
22,COc1cccc(CNC(=O)C2CCN(c3nc4ccccc4n3Cc3ccccc3C)CC2)c1 [Compound 19],100 to 1000 nM
23,"CC(C)(C)OC(=O)N1CCC(C(COc2ccc(-c3nc4ccccc4n3Cc3ccccc3)cc2)n2c(-c3ccccc3)nc3ccccc32)CC1 (stereo not drawn) [Compound 08, tert-Butyl-4-(2-(4-(1-benzyl-1H-benzo[d]imidazol-2-yl)phenoxy)-1-(2-phenyl-1H-benzo[d]imidazol-1-yl)ethyl)piperidine-1-carboxylate]",> 1000 nM

row,Compound,Kd
1,CN(CCCNC(=O)C1CCN(c2nc3ccccc3n2Cc2ccc(F)cc2)CC1)C1CCCCC1 [Compound 21],100 to 1000 nM
2,Clc1cccc(Cn2c(-c3ccco3)nc3ccccc32)c1 [Compound 39],100 to 1000 nM
3,CCOc1ccc(CNC(=O)C2CCN(c3nc4ccccc4n3Cc3ccc(F)cc3)CC2)cc1 [Compound 20],25 to 100 nM
4,"C=CCOc1ccc(-c2nc3ccccc3n2Cc2ccccn2)cc1 [Compound S03, 2-(4-(Allyloxy)phenyl)-1-(pyridin-2-ylmethyl)-1H-benzo[d]imidazole]",> 1000 nM
5,"c1ccc(Cn2c(-c3ccc(OCCn4c(-c5ccccc5)nc5ccccc54)cc3)nc3ccccc32)cc1 [Compound 06, 1-Benzyl-2-(4-(2-(2-phenyl-1H-benzo[d]imidazol-1-yl)ethoxy)phenyl)-1H-benzo[d]imidazole]",100 to 1000 nM
6,Cc1ccc(-c2nc3ccccc3n2Cc2ccc(F)cc2)o1 [Compound 42],100 to 1000 nM
7,"C=CCOc1ccc(-c2nc3ccccc3n2Cc2ccccc2C)cc1 [Compound S04, 2-(4-(Allyloxy)phenyl)-1-(2-methylbenzyl)-1H-benzo[d]imidazole]",> 1000 nM
8,"c1ccc(C2Nc3ccccc3-c3nc4ccccc4n32)nc1 (stereo not drawn) [Compound 02, 6-Pyiridyl-5,6-dihydrobenzo[4-5]imidazo[1,2-c]quinazoline]",> 1000 nM
9,Ic1ccc(Cn2c(-c3ccc(I)o3)nc3ccccc32)o1 [Compound 48],25 to 100 nM
10,"OCC(C1CCCCC1)n1c(-c2ccccc2)nc2ccccc21 (stereo not drawn) [Compound S16, 2-Cyclohexyl-2-(2-phenyl-1H-benzo[d]imidazol-1-yl)ethanol]",> 1000 nM
11,O=C(NCCO)C(c1ccccc1)n1c(-c2ccccc2)nc2ccccc21 (stereo not drawn) [Compound 51],> 1000 nM
12,CCN(CCCNC(=O)C1CCN(c2nc3ccccc3n2Cc2ccc(C)cc2)CC1)c1cccc(C)c1 [Compound 24],> 1000 nM
13,CC(C)Cc1nc2ccccc2n1Cc1c(F)cccc1Cl [Compound 37],25 to 100 nM
14,Cc1ccc(C)c(Cn2c(CCNC(=O)CCCC(C)O)nc3ccccc32)c1 (stereo not drawn) [Compound 47],> 1000 nM
15,"C=CCOc1ccc(-c2nc3ccccc3n2Cc2ccc(F)cc2)cc1 [Compound S06, 2-(4-(Allyloxy)phenyl)-1-(4-fluorobenzyl)-1H-benzo[d]imidazole]",100 to 1000 nM
16,C#CCn1c(-c2ccccc2Br)nc2ccccc21 [Compound 38],> 1000 nM
17,Cc1ccc(NC(=O)N2CCN(c3nc4ccccc4n3Cc3ccccc3)CC2)c(C)c1 [Compound 44],100 to 1000 nM
18,Cc1cccc(-c2nc3ccccc3n2CCc2ccccc2)c1 [Compound 36],> 1000 nM
19,CC(C)Cc1nc2ccccc2n1Cc1ccccc1 [Compound 32],100 to 1000 nM
20,Cc1ccccc1Cn1c(N2CCC(C(=O)O)CC2)nc2ccccc21 [Compound 22],> 1000 nM
21,CCCC(O)c1nc2ccccc2n1Cc1c(F)cccc1Cl (stereo not drawn) [Compound 41],100 to 1000 nM
22,CC1CCCN(C(=O)C2CCN(c3nc4ccccc4n3Cc3cccc(F)c3)CC2)C1 (stereo not drawn) [Compound 23],> 1000 nM
23,Cc1ccccc1Cn1c(N2CCC(C(=O)NCCCN3CC(C)CC(C)C3)CC2)nc2ccccc21 (stereo not drawn) [Compound 25],100 to 1000 nM

# Same assay, conditions: read-out: KD
row,Compound,Kd
1,O=C(NCCCN1CCN(c2ccc(O)cc2)CC1)C1CCN(c2nc3ccccc3n2Cc2cccc(F)c2)CC1 [Compound 18],100 to 1000 nM

# Test system: PANC-TUI cells
# Experiment: Real time cell analysis (RTCA) of PANC-TUI cell proliferation
# Assay type: cell-based, human
# Conditions: 5µM, K-Ras dependent pancreatic tumor cell
# Method: To address whether the novel compounds that target the farnesyl binding pocket in PDEδ inhibit the interaction between PDEδ and Ras family proteins in live cells, fluorescence lifetime imaging microscopy (FLIM)-based quantitative fluorescence resonance energy transfer (FRET) measurements were carried out. […] Figure 4: Real time cell analysis (RTCA) of PANC-TUI cell proliferation. PANC-TUI is a K-Ras dependent pancreatic tumor cell.
row,Compound,PANC-TUI cell proliferation
1,"c1ccc(Cn2c(-c3ccc(OC[C@H](C4CCNCC4)n4c(-c5ccccc5)nc5ccccc54)cc3)nc3ccccc32)cc1 [(S)-9, (S)-1-Benzyl-2-(4-(2-(2-phenyl-1H-benzo[d]imidazol-1-yl)-2-(piperidin-4-yl)ethoxy)phenyl)-1H-benzo[d]imidazole]",stopped proliferating and underwent cell death within a few hours

# Test system: CAPAN-1 cells
# Experiment: Real time cell analysis (RTCA) of CAPAN-1 cells
# Assay type: cell-based
# Conditions: 5µM, K-Ras dependent pancreatic tumor cell
row,Compound,Proliferation of CAPAN-1 cells
1,"c1ccc(Cn2c(-c3ccc(OC[C@H](C4CCNCC4)n4c(-c5ccccc5)nc5ccccc54)cc3)nc3ccccc32)cc1 [(S)-9, (S)-1-Benzyl-2-(4-(2-(2-phenyl-1H-benzo[d]imidazol-1-yl)-2-(piperidin-4-yl)ethoxy)phenyl)-1H-benzo[d]imidazole]",inhibited strongly

# Test system: Erk
# Experiment: Western blot of ERK signaling (Erk phosphorylation) in PANC-TUI cells
# Assay type: cell-based, human
# Conditions: 5 µM, EGF, measured by phosphorylation
row,Compound,activation of Erk
1,"c1ccc(Cn2c(-c3ccc(OC[C@H](C4CCNCC4)n4c(-c5ccccc5)nc5ccccc54)cc3)nc3ccccc32)cc1 [(S)-9, (S)-1-Benzyl-2-(4-(2-(2-phenyl-1H-benzo[d]imidazol-1-yl)-2-(piperidin-4-yl)ethoxy)phenyl)-1H-benzo[d]imidazole]",attenuated activation of Erk

# Test system: mCherry-K-Ras in Panc1 cells
# Experiment: Time series of mCherry-K-Ras redistribution in Panc1 cells
# Assay type: cell-based, human
# Conditions: 5µM
row,Compound,mCherry-K-Ras redistribution
1,"c1ccc(Cn2c(-c3ccc(OC[C@H](C4CCNCC4)n4c(-c5ccccc5)nc5ccccc54)cc3)nc3ccccc32)cc1 [(S)-9, (S)-1-Benzyl-2-(4-(2-(2-phenyl-1H-benzo[d]imidazol-1-yl)-2-(piperidin-4-yl)ethoxy)phenyl)-1H-benzo[d]imidazole]",loss of K-Ras spatial organization

# Test system: mCherry-K-Ras in PancTul cells
# Experiment: Time series of mCherry-K-Ras redistribution in PancTul cells
# Assay type: cell-based, human
# Conditions: 5µM
row,Compound,mCherry-K-Ras redistribution
1,"c1ccc(Cn2c(-c3ccc(OC[C@H](C4CCNCC4)n4c(-c5ccccc5)nc5ccccc54)cc3)nc3ccccc32)cc1 [(S)-9, (S)-1-Benzyl-2-(4-(2-(2-phenyl-1H-benzo[d]imidazol-1-yl)-2-(piperidin-4-yl)ethoxy)phenyl)-1H-benzo[d]imidazole]",loss of K-Ras spatial organization

# Molecular target: interaction of Rheb with PDEδ (Homo sapiens, UniProt O43924)
# Sequence (O43924 whole entry): as above
# Experiment: not given
# Conditions: 5 µM, live MDCK cells, measured by FLIM
row,Compound,interaction between mCitrine-Rheb and mCherry-PDEδ
1,"c1ccc(Cn2c(-c3ccc(OC[C@H](C4CCNCC4)n4c(-c5ccccc5)nc5ccccc54)cc3)nc3ccccc32)cc1 [(S)-9, (S)-1-Benzyl-2-(4-(2-(2-phenyl-1H-benzo[d]imidazol-1-yl)-2-(piperidin-4-yl)ethoxy)phenyl)-1H-benzo[d]imidazole]",more rapidly (within one minute) and more strongly reduced
